# Test system: NF-kB activation induced by TNFα
# Assay: TNFα Luciferase assay: inhibition of NF-kB activation induced by TNFα in HEK293/NF-kB luciferase cells
# Format: cell-based
# Details: 25 ng/ml of TNF-α for four hours, quadruplicate, read-out: IC50, concentration at which NF-kB activation was reduced by 50%
# Experimental: Determination of Inhibition of NF-kB Activation Induced by TNFα . . . In Vitro Assay
# The ability of a compound disclosed herein to inhibit NFkB activation induced by TNFα was determined using the TNFα Luciferase assay. The HEK293/NF-kB luciferase cell line was obtained by cotransfection of pNFkB-luc vector with pHyg (Panomics, CA, USA) followed by hygromycin selection. HEK293/NFkB Luciferase cells were grown in DMEM medium supplemented with 10% fetal bovine serum, 100 U/ml of penicillin, 100 ng/ml of streptomycin/Fungizone, and 100 μg/ml of hygromycin B as the selecting agent. HEK293 NFkB Luciferase cells were grown in T75 flasks (Nunc™ Cell Culture Treated EasYFlasks™) in a cell culture incubator at 37° C. and 5% CO2.
# Confluent T75 cell culture flasks (approximately 8-10 million of cells per flask) were washed with 10 ml of sterile PBS (without calcium and magnesium) under a biosafety cabinet. After aspiration of the PBS with a sterile glass pipette, the layer of cells (for each T75 flask) was covered with 1 ml of TrypLE™ Express without phenol red (Gibco) at room temperature. After one minute of incubation, HEK293 were mechanically resuspended in the TrypLE by tapping the side of the flask. The cells were then resuspended with 10 ml of pre-warmed complete culture medium and transferred to a conical tube. Cells were centrifuged for 5 minutes at 4000 rpm (1000 g) at room temperature. The cellular pellet was resuspended with 24 ml of pre-warmed cell culture media and […] of cell suspension (approximately 80,000 cells per well) was plated per well in 96-well cell culture plates (Costar #3599, Corning, N.Y., USA) using a multichannel pipette and reversed pipetting to prevent air bubble formation. After plating, the cells were maintained overnight in the cell culture incubator before being treated. For each 96 well cell culture plate, 8 wells were used as “control wells” (only culture medium added) and to 8 wells only TNFα was added. The NF-kB Luciferase reporter cell line was challenged with 25 ng/ml of TNF-α for four hours in the presence and absence (control conditions) of a dose range of the different compounds to be tested. For each compound, a dose range of concentrations was tested in quadruplicate and used to determine an IC50.
# Luciferase activity was monitored using the Luc-Screen® Extended-Glow Luciferase Reporter Gene Assay System by chemoluminescence according to the instruction of the manufacturer (Invitrogen) and a BioTek Synergy HT plate reader (BioTek Instruments, VT, USA).
row,Compound,IC50 [nM]
1,"mixture of 2-((S)-1-oxo-1-((S)-6-(pyridin-3-yl)-5,6-dihydropyridin-1(2H)-yl)butan-2-yl)isoindoline-1,3-dione and 2-((R)-1-oxo-1-((R)-6-(pyridin-3-yl)-5,6-dihydropyridin-1(2H)-yl)butan-2-yl)isoindoline-1,3-dione [Compound 5]",925000
2,C[C@H](NC(=O)c1cccc([N+](=O)[O-])c1)C(=O)N1CC=CCC1c1cccnc1 (stereo partly shown) [Compound 9],200000

# Same assay, conditions: Homo sapiens, 4 h, 25 ng/ml of TNF-α for four hours, quadruplicate, read-out: IC50, concentration at which NF-kB activation was reduced by 50%
row,Compound,IC50 [nM]
1,"COc1ccccc1C(=O)N[C@H](Cc1ccccc1)C(=O)N1CC=CCC1c1cccnc1 (stereo partly drawn) [Compound 32, 2-methoxy-N-((2R)-1-oxo-3-phenyl-1-(6-(pyridin-3-yl)-5,6-dihydropyridin-1(2H)-yl)propan-2-yl)benzamide]",8600
2,"O=C(N[C@@H](Cc1ccccc1)C(=O)N1CC=CCC1c1cccnc1)c1cccc(NC(=O)C2CCCC2)c1 (stereo partly drawn) [Compound 46, 3-(cyclopentanecarboxamido)-N-((2S)-1-oxo-3-phenyl-1-(6-(pyridin-3-yl)-5,6-dihydropyridin-1(2H)-yl)propan-2-yl)benzamide]",58.5
3,"CC(=O)Nc1cccc(C(=O)NC(Cc2ccccc2)C(=O)N2CC=CCC2c2cccnc2)c1 (stereo not shown) [Compound 39, 3-acetamido-N-(1-oxo-3-phenyl-1-(6-(pyridin-3-yl)-5,6-dihydropyridin-1(2H)-yl)propan-2-yl)benzamide]",210
4,"C[C@H](NC(=O)c1ccc([N+](=O)[O-])cc1)C(=O)N1CC=CCC1c1cccnc1 (stereo partly drawn) [Compound 13, 4-nitro-N-((2S)-1-oxo-1-(6-(pyridin-3-yl)-5,6-dihydropyridin-1(2H)-yl)propan-2-yl)benzamide]",276000
5,"COc1cc(Cl)ccc1C(=O)N[C@H](Cc1ccccc1)C(=O)N1CC=CCC1c1cccnc1 (stereo partly drawn) [Compound 30, 4-chloro-2-methoxy-N-((2R)-1-oxo-3-phenyl-1-(6-(pyridin-3-yl)-5,6-dihydropyridin-1(2H)-yl)propan-2-yl)benzamide]",4300
6,"CCCCC(=O)Nc1cccc(C(=O)NC(Cc2ccccc2)C(=O)N2CC=CCC2c2cccnc2)c1 (stereo not shown) [Compound 36, N-(1-oxo-3-phenyl-1-(6-(pyridin-3-yl)-5,6-dihydropyridin-1(2H)-yl)propan-2-yl)-3-pentanamidobenzamide]",150
7,"COc1ccc(C(=O)N[C@@H](C)C(=O)N2CC=CCC2c2cccnc2)cc1OC (stereo partly drawn) [Compound 12, 3,4-dimethoxy-N-((2S)-1-oxo-1-(6-(pyridin-3-yl)-5,6-dihydropyridin-1(2H)-yl)propan-2-yl)benzamide]",470000
8,"CCCC(=O)Nc1ccc(C(=O)N[C@@H](Cc2ccccc2)C(=O)N2CC=CCC2c2cccnc2)cc1 (stereo partly drawn) [Compound 48, 4-butyramido-N-((2S)-1-oxo-3-phenyl-1-(6-(pyridin-3-yl)-5,6-dihydropyridin-1(2H)-yl)propan-2-yl)benzamide]",114
9,"O=C(NC(Cc1ccccc1)C(=O)N1CC=CCC1c1cccnc1)c1cccc(C(F)(F)F)c1 (stereo not shown) [Compound 23, N-(1-oxo-3-phenyl-1-(6-(pyridin-3-yl)-5,6-dihydropyridin-1(2H)-yl)propan-2-yl)-3-(trifluoromethyl)benzamide]",6500
10,"COc1cccc(C(=O)N[C@H](Cc2ccccc2)C(=O)N2CC=CCC2c2cccnc2)c1 (stereo partly drawn) [Compound 25, 3-methoxy-N-((2R)-1-oxo-3-phenyl-1-(6-(pyridin-3-yl)-5,6-dihydropyridin-1(2H)-yl)propan-2-yl)benzamide]",2500
11,"CC(C)(C)C(=O)Nc1cccc(C(=O)N[C@@H](Cc2ccccc2)C(=O)N2CC=CCC2c2cccnc2)c1 (stereo partly drawn) [Compound 43, N-((2S)-1-oxo-3-phenyl-1-(6-(pyridin-3-yl)-5,6-dihydropyridin-1(2H)-yl)propan-2-yl)-3-pivalamidobenzamide]",129
12,"C[C@@H](C(=O)N1CC=CCC1c1cccnc1)N1C(=O)c2ccccc2C1=O (stereo partly drawn) [Compound 1, 2-((2S)-1-oxo-1-(6-(pyridin-3-yl)-5,6-dihydropyridin-1(2H)-yl)propan-2-yl)isoindoline-1,3-dione]",375000
13,"CCCC(=O)Nc1cccc(C(=O)NC(Cc2ccccc2)C(=O)N2CC=CCC2c2cc3ccccc3nc2Cl)c1 (stereo not shown) [Compound 67, 3-butyramido-N-(1-(2-(2-chloroquinolin-3-yl)-3,6-dihydropyridin-1(2H)-yl)-1-oxo-3-phenylpropan-2-yl)benzamide]",1700
14,"CCCC(=O)Nc1ccccc1C(=O)N[C@@H](Cc1ccccc1)C(=O)N1CC=CCC1c1cccnc1 (stereo partly drawn) [Compound 47, 2-butyramido-N-((2S)-1-oxo-3-phenyl-1-(6-(pyridin-3-yl)-5,6-dihydropyridin-1(2H)-yl)propan-2-yl)benzamide]",159
15,"O=C(N[C@@H](Cc1ccccc1)C(=O)N1CC=CCC1c1cccnc1)c1cnccn1 (stereo partly drawn) [Compound 50, N-((2S)-1-oxo-3-phenyl-1-(6-(pyridin-3-yl)-5,6-dihydropyridin-1(2H)-yl)propan-2-yl)pyrazine-2-carboxamide]",131
16,"CCCC(=O)Nc1cccc(C(=O)N[C@@H](Cc2ccccc2)C(=O)N2CCCCC2c2cccnc2)c1 (stereo partly drawn) [Compound 63, 3-butyramido-N-((2S)-1-oxo-3-phenyl-1-(2-(pyridin-3-yl)piperidin-1-yl)propan-2-yl)benzamide]",58.4
17,"O=C(N[C@@H](Cc1ccccc1)C(=O)N1CC=CCC1c1cccnc1)c1cccc(NC(=O)C2CC2)c1 (stereo partly drawn) [Compound 44, 3-(cyclopropanecarboxamido)-N-((2S)-1-oxo-3-phenyl-1-(6-(pyridin-3-yl)-5,6-dihydropyridin-1(2H)-yl)propan-2-yl)benzamide]",80.2
18,"CCCC(=O)Nc1cccc(C(=O)N[C@@H](Cc2cccc3ccccc23)C(=O)N2CC=CCC2c2cccnc2)c1 (stereo partly shown) [Compound 64, 3-butyramido-N-((2 S)-3-(naphthalen-1-yl)-1-oxo-1-(6-(pyridin-3-yl)-5,6-dihydropyridin-1 (2H)-yl)propan-2-yl)benzamide]",285
19,"Nc1cccc(C(=O)NC(Cc2ccccc2)C(=O)N2CC=CCC2c2cccnc2)c1 (stereo not shown) [Compound 38, 3-amino-N-(1-oxo-3-phenyl-1-(6-(pyridin-3-yl)-5,6-dihydropyridin-1(2H)-yl)propan-2-yl)benzamide]",250
20,"COc1cccc(C(=O)NC(Cc2ccccc2)C(=O)N2CC=CCC2c2cccnc2)c1 (stereo not shown) [Compound 16, 3-methoxy-N-(1-oxo-3-phenyl-1-(6-(pyridin-3-yl)-5,6-dihydropyridin-1 (2H)-yl)propan-2-yl)benzamide]",2000
21,"CCOc1cccc(C(=O)N[C@@H](Cc2ccccc2)C(=O)N2CC=CCC2c2cccnc2)c1 (stereo partly drawn) [Compound 33, 3-ethoxy-N-((2S)-1-oxo-3-phenyl-1-(6-(pyridin-3-yl)-5,6-dihydropyridin-1(2H)-yl)propan-2-yl)benzamide]",1800
22,"O=C1c2ccccc2C(=O)N1CC(=O)N1CC=CCC1c1cccnc1 (stereo not shown) [Compound 8, 2-(2-oxo-2-(6-(pyridin-3-yl)-5,6-dihydropyridin-1(2H)-yl)ethyl)isoindoline-1,3-dione]",550000
23,"CCCC(=O)Nc1cccc(C(=O)NC(Cc2ccccc2)C(=O)N2CC=CCC2c2cnc3ccccc3c2)c1 (stereo not shown) [Compound 40, 3-butyramido-N-(1-oxo-3-phenyl-1-(2-(quinolin-3-yl)-3,6-dihydropyridin-1(2H)-yl)propan-2-yl)benzamide]",40

# From patent publication US20220081415A1, “Amino Acid Derivatives for the Treatment of Inflammatory Diseases” (The Roskamp Institute, priority 2019, published 2022)
